From US4108994A, “5-Thiazole-methane-amines, and their use as antilipolytics” (Roussel Uclaf, priority 1975, dated 1978)
Where a name gives a salt, the structure may show the parent alone.

How the values were obtained:
[1] = acute toxicity, intraperitoneal, mice (DL50); details: mouse, in vivo, ip, suspension in carboxymethylcellulose, observed one week, read-out: DL50 (average lethal dose)
Method: The acute toxicity was determined on groups of 10 mice weighing between 18 and 22 g and the product was administered intraperitoneally as a suspension in carboxymethylcellulose.

[2] = test system: plasmatic free fatty acids; experiment: Antilipolytic activity: determination of plasmatic free fatty acids in the blood; format: in vivo, Male rats of the Sprague Dawley SPF strain; details: oral; for ED50: Rattus norvegicus, 1 h, starved rats, one hour after administration, read-out: DA50 (dose which reduced by 50% the level of free fatty acids as compared to controls); for reduction of the amount of plasmatic free fatty acids in the blood (in words): rats
Method: B. Antilipolytic Activity: Determination of Plasmatic Free Fatty Acids in the Blood
Male rats of the Sprague Dawley SPF strain weighing about 180 to 200 gm were starved for 24 hours and then were given the product orally. One hour after the oral administration, the animals were killed by carotidienne section and samples of the blood were obtained to determine the amount of free fatty acids. The extraction of the free fatty acids was made by the technique of Dole [J. Clin. Invest., Vol. 38 (1959), p. 1544-1554] as modified by Trout et al. [J. Lipid. Res., Vol. 1 (1960) p. 199-202]. The plasmatic extract freed of phospholipids was colorimetrically examined by the method of Anthonis [J. Lipid. Res., Vol. 6 (1965), p. 307-312]. Under these test conditions, the dose of the products which reduced by 50% the level of free fatty acids in the treated animals as compared to the controls (DA50) was determined.

glycemia = experiment: Hypoglycemiant activity: determination of glycemia; format: in vivo, Male rats of the Sprague Dawley SPF strain; details: oral, starved rats, one hour
Method: C. Hypoglycemiant Activity: Determination of Glycemia
Male rats of the Sprague Dawley SPF strain weighing between 180 and 200 gm were starved for 24 hours and were then given the test product orally. One hour after the administration, the animals were killed by carotidienne section and blood samples were taken to determine the glycemia. The seric extract was treated by the enzymatic (glucose-oxydase) method of Boehringer and the percent of reduction of glycemia as compared to the controls was determined for each dose of the product administered.

Row | Compound | LD50 at 168 h [1] | ED50 [2] | reduction of the amount of plasmatic free fatty acids in the blood (in words) [2] | Percentage of reduction of the glycemia (glycemia; 5 mg/kg) | Percentage of reduction of the glycemia (glycemia; 10 mg/kg) | Percentage of reduction of the glycemia (glycemia; 20 mg/kg)
1 | Cc1ncc(CN)s1 [Example 1, hemisuccinate of 2-methyl-5-thiazole-methane-amine] | > 1000 mg/kg | ~0.8 mg/kg | clear reduction |  |  | 
2 | CNCc1cnc(C)s1 [Example 2, acetate of N,2-dimethyl-5-thiazole-methane-amine] | ~700 mg/kg | ~4 mg/kg | clear reduction |  |  | 
3 | Cc1ncc(CN(C)C)s1 [Example 3, maleate of N,N,2-trimethyl-5-thiazole-methane-amine] | ~450 mg/kg | ~5 mg/kg | clear reduction |  |  | 
4 | Cc1ncc(CN(CCO)CCO)s1 [Example 4, dinitrate of N,N-bis-(β-hydroxyethyl)-2-methyl-5-thiazole-methane-amine] | ~900 mg/kg |  |  |  |  | 
5 | CCCc1ncc(CN)s1 [Example 5, hemisuccinate of 2-n-propyl-5-thiazole-methane-amine] | ~650 mg/kg | ~8 mg/kg | clear reduction | -12% | -14% | -27%
6 | Cc1ncc(CN2CCN(C)CC2)s1 [Example 7, 2-methyl-5-(4-methyl-piperazin-1-yl-methyl)-thiazole] | ~500 mg/kg |  |  |  |  | 
